Laboratory results taken from patent US7544701B2, “Sulfonyldihydrobenzimidazolone compounds as 5-hydroxytryptamine-6 ligands” (Wyeth, priority 2003, dated 2009).

Biological target: T1, human cloned 5-HT6 receptors (Homo sapiens, UniProt P50406)
T1 construct: expressed in transfected cells; host or cells: Hela cells
Assay: 5-HT6 binding affinity ([3H]-LSD displacement, membranes of Hela cells expressing human cloned 5-HT6 receptors)
Settings: [3H]-LSD 3.0 nM, 120 min, room temperature, Hela cell membranes
Experimental: The affinity of test compounds for the serotonin 5-HT6 receptor is evaluated in the following manner. Cultured Hela cells expressing human cloned 5-HT6 receptors are harvested and centrifuged at low speed (1,000×g) for 10.0 min to remove the culture media. The harvested cells are suspended in half volume of fresh physiological phosphate buffered saline solution and recentrifuged at the same speed. This operation is repeated. The collected cells are then homogenized in ten volumes of 50 mM Tris.HCl (pH 7.4) and 0.5 mM EDTA. The homogenate is centrifuged at 40,000×g for 30.0 min and the precipitate is collected. The obtained pellet is resuspended in 10 volumes of Tris.HCl buffer and recentrifuged at the same speed. The final pellet is suspended in a small volume of Tris.HCl buffer and the tissue protein content is determined in aliquots of 10-25 μl volumes. Bovine Serum Albumin is used as the standard in the protein determination according to the method described in Lowry et al., J. Biol. Chem., 193:265 (1951). The volume of the suspended cell membranes is adjusted to give a tissue protein concentration of 1.0 mg/ml of suspension. The prepared membrane suspension (10 times concentrated) is aliquoted in 1.0 ml volumes and stored at −70° C. until used in subsequent binding experiments.
Binding experiments are performed in a 96 well microtiter plate format, in a total volume of 200 μl. […] The test compounds are added in 20.0 μl volume.
The reaction is allowed to proceed in the dark for 120 min at room temperature, at which time, the bound ligand-receptor complex is filtered off on a 96 well unifilter with a Packard Filtermate® 196 Harvester. The bound complex caught on the filter disk is allowed to air dry and the radioactivity is measured in a Packard TopCount® equipped with six photomultiplier detectors, after the addition of 40.0 μl Microscint®-20 scintillant to each shallow well. The unifilter plate is heat-sealed and counted in a PackardTopCount® with a tritium efficiency of 31.0%.
Binding in the presence of varying concentrations of test compound is expressed as a percentage of specific binding in the absence of test compound. The results are plotted as log % bound versus log concentration of test compound. […] A linear regression line of data points is plotted, from which the IC50 value is determined and the Ki value is determined based upon the following equation: Ki=IC50/(1+L/KD) where L is the concentration of the radioactive ligand used and KD is the dissociation constant of the ligand for the receptor, both expressed in nM.

T1 sequence (P50406 whole entry): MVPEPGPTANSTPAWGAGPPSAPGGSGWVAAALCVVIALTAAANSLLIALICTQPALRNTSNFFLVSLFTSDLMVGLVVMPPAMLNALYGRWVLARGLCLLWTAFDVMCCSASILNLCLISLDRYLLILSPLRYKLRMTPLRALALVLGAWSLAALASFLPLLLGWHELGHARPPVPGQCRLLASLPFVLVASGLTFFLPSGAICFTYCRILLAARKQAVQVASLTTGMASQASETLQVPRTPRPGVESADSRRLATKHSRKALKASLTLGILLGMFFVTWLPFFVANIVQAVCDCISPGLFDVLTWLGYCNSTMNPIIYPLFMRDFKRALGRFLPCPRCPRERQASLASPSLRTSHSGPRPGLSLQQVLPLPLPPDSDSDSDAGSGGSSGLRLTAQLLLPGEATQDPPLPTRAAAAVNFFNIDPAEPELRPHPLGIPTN

| Ki | Molecule |
| --- | --- |
| 18 nM | 1-[(2,6-dichloroimidazo[2,1-b][1,3]thiazol-5-yl)sulfonyl]-3-(1,2,3,6-tetrahydropyridin-4-yl)-1,3-dihydro-2H-benzimidazol-2-one [Example 50] |
| 43 nM | CN(C)CCn1c(=O)n(S(=O)(=O)c2ccc(Cl)s2)c2ccccc21 [Example 4, 1-[(5-Chlorothien-2-yl)sulfonyl]-3-[2-(dimethylamino)ethyl]-1,3-dihydro-2H-benzimidazol-2-one] |
| 20 nM | CN(C)CCn1c(=O)n(S(=O)(=O)c2c(Cl)nc3sccn23)c2ccccc21 [Example 5, 1-[(6-chloroimidazo[2,1-b][1,3]thiazol-5-yl)sulfonyl]-3-[2-(dimethylamino)ethyl]-1,3-dihydro-2H-benzimidazol-2-one] |
| 17 nM | CN(C)CCn1c(=O)n(S(=O)(=O)c2ccc3ccccc3c2)c2ccccc21 [Example 6, 1-[2-(dimethylamino)ethyl]-3-(2-naphthylsulfonyl)-1,3-dihydro-2H-benzimidazol-2-one] |
| 40 nM | CN(C)CCn1c(=O)n(S(=O)(=O)c2ccc(Br)s2)c2ccccc21 [Example 10, 1-[(5-bromothien-2-yl)sulfonyl]-3-[2-(dimethylamino)ethyl]-1,3-dihydro-2H-benzimidazol-2-one] |
| 26 nM | NCCn1c(=O)n(S(=O)(=O)c2ccc(Cl)s2)c2ccccc21 [Example 17, 1-(2-Aminoethyl)-3-[(5-chlorothien-2-yl)sulfonyl]-1,3-dihydro-2H-benzimidazol-2-one] |
| 6 nM | NCCn1c(=O)n(S(=O)(=O)c2c(Cl)nc3sccn23)c2ccccc21 [Example 18, 1-(2-aminoethyl)-3-[(6-chloroimidazo[2,1-b][1,3]thiazol-5-yl)sulfonyl]-1,3-dihydro-2H-benzimidazol-2-one] |
| 23 nM | NCCn1c(=O)n(S(=O)(=O)c2ccc3ccccc3c2)c2ccccc21 [Example 19, 1-(2-aminoethyl)-3-(2-naphthylsulfonyl)-1,3-dihydro-2H-benzimidazol-2-one] |
| 26 nM | NCCn1c(=O)n(S(=O)(=O)c2ccc(Br)s2)c2ccccc21 [Example 20, 1-(2-aminoethyl)-3-[(5-bromothien-2-yl)sulfonyl]-1,3-dihydro-2H-benzimidazol-2-one] |
| 20 nM | O=c1n(C2CCNCC2)c2ccccc2n1S(=O)(=O)c1ccc2ccccc2c1 [Example 22, 3-(Naphth-2-ylsulfonyl)-1-piperidin-4-yl-1,3-dihydrobenzimidazol-2-one] |
| 20 nM | O=c1n(C2CCNCC2)c2ccccc2n1S(=O)(=O)c1ccc(Cl)s1 [Example 23, 1-[(5-chlorothien-2-yl)sulfonyl]-3-piperidin-4-yl-1,3-dihydro-2H-benzimidazol-2-one] |
| 5 nM | O=c1n(C2CCNCC2)c2ccccc2n1S(=O)(=O)c1ccc(Br)s1 [Example 24, 1-[(5-bromothien-2-yl)sulfonyl]-3-piperidin-4-yl-1,3-dihydro-2H-benzimidazol-2-one] |
| 32 nM | O=c1n(C2CCNCC2)c2ccccc2n1S(=O)(=O)c1cc(Cl)c(Cl)s1 [Example 25, 1-[(4,5-dichlorothien-2-yl)sulfonyl]-3-piperidin-4-yl-1,3-dihydro-2H-benzimidazol-2-one] |
| 34 nM | O=c1n(C2CCNCC2)c2ccccc2n1S(=O)(=O)c1cc(Cl)sc1Cl [Example 26, 1-[(2,5-dichlorothien-3-yl)sulfonyl]-3-piperidin-4-yl-1,3-dihydro-2H-benzimidazol-2-one] |
| 27 nM | O=c1n(C2CCNCC2)c2ccccc2n1S(=O)(=O)c1cc(Br)c(Br)s1 [Example 27, 1-[(4,5-dibromothien-2-yl)sulfonyl]-3-piperidin-4-yl-1,3-dihydro-2H-benzimidazol-2-one] |
| 20 nM | O=c1n(C2CCNCC2)c2ccccc2n1S(=O)(=O)c1cc(Br)c(Cl)s1 [Example 29, 1-[(4-bromo-5-chlorothien-2-yl)sulfonyl]-3-piperidin-4-yl-1,3-dihydro-2H-benzimidazol-2-one] |

| Ki | Molecule |
| --- | --- |
| 42 nM | O=c1n(C2CCNCC2)c2ccccc2n1S(=O)(=O)c1c(Cl)sc(Cl)c1Br [Example 30, 1-[(4-bromo-2,5-dichlorothien-3-yl)sulfonyl]-3-piperidin-4-yl-1,3-dihydro-2H-benzimidazol-2-one] |
| 80 nM | Cc1c(S(=O)(=O)n2c(=O)n(C3CCNCC3)c3ccccc32)sc2ccc(Cl)cc12 [Example 31, 1-[(5-chloro-3-methyl-1-benzothien-2-yl)sulfonyl]-3-piperidin-4-yl-1,3-dihydro-2H-benzimidazol-2-one] |
| 46 nM | O=c1n(C2CCNCC2)c2ccccc2n1S(=O)(=O)c1c(Cl)nc2sccn12 [Example 32, 1-[(6-chloroimidazo[2,1-b][1,3]thiazol-5-yl)sulfonyl]-3-piperidin-4-yl-1,3-dihydro-2H-benzimidazol-2-one] |
| 23 nM | O=c1n(C2CCNCC2)c2ccccc2n1S(=O)(=O)c1c(Cl)nc2sc(Cl)cn12 [Example 33, 1-[(2,6-dichloroimidazo[2,1-b][1,3]thiazol-5-yl)sulfonyl]-3-piperidin-4-yl-1,3-dihydro-2H-benzimidazol-2-one] |
| 77 nM | O=c1n(C2CCNCC2)c2ccccc2n1S(=O)(=O)c1c(Cl)nc2ccccn12 [Example 34, 1-[(2-chloroimidazo[1,2-a]pyridin-3-yl)sulfonyl]-3-piperidin-4-yl-1,3-dihydro-2H-benzimidazol-2-one] |
| 45 nM | O=c1n(C2CCNCC2)c2ccccc2n1S(=O)(=O)c1cccc2nsnc12 [Example 38, 1-[(2,1,3-benzothiadiazol-4-yl)sulfonyl]-3-piperidin-4-yl-1,3-dihydro-2H-benzimidazol-2-one] |
| 6 nM | O=c1n(C2=CCNCC2)c2ccccc2n1S(=O)(=O)c1ccc2ccccc2c1 [Example 39, 1-(2-naphthylsulfonyl)-3-(1,2,3,6-tetrahydropyridin-4-yl)-1,3-dihydro-2H-benzimidazol-2-one] |
| 5 nM | O=c1n(C2=CCNCC2)c2ccccc2n1S(=O)(=O)c1ccc(Cl)s1 [Example 40, 1-[(5-chlorothien-2-yl)sulfonyl]-3-(1,2,3,6-tetrahydropyridin-4-yl)-1,3-dihydro-2H-benzimidazol-2-one] |
| 4 nM | O=c1n(C2=CCNCC2)c2ccccc2n1S(=O)(=O)c1ccc(Br)s1 [Example 41, 1-[(5-bromothien-2-yl)sulfonyl]-3-(1,2,3,6-tetrahydropyridin-4-yl)-1,3-dihydro-2H-benzimidazol-2-one] |
| 15 nM | O=c1n(C2=CCNCC2)c2ccccc2n1S(=O)(=O)c1cc(Cl)c(Cl)s1 [Example 42, 1-[(4,5-dichlorothien-2-yl)sulfonyl]-3-(1,2,3,6-tetrahydropyridin-4-yl)-1,3-dihydro-2H-benzimidazol-2-one] |
| 9 nM | O=c1n(C2=CCNCC2)c2ccccc2n1S(=O)(=O)c1cc(Cl)sc1Cl [Example 43, 1-[(2,5-dichlorothien-3-yl)sulfonyl]-3-(1,2,3,6-tetrahydropyridin-4-yl)-1,3-dihydro-2H-benzimidazol-2-one] |
| 10 nM | O=c1n(C2=CCNCC2)c2ccccc2n1S(=O)(=O)c1sc(Cl)cc1Br [Example 45, 1-[(3-bromo-5-chlorothien-2-yl)sulfonyl]-3-(1,2,3,6-tetrahydropyridin-4-yl)-1,3-dihydro-2H-benzimidazol-2-one] |
| 9 nM | O=c1n(C2=CCNCC2)c2ccccc2n1S(=O)(=O)c1cc(Br)c(Cl)s1 [Example 46, 1-[(4-bromo-5-chlorothien-2-yl)sulfonyl]-3-(1,2,3,6-tetrahydropyridin-4-yl)-1,3-dihydro-2H-benzimidazol-2-one] |
| 49 nM | Cc1c(S(=O)(=O)n2c(=O)n(C3=CCNCC3)c3ccccc32)sc2ccc(Cl)cc12 [Example 48, 1-[(5-chloro-3-methyl-1-benzothien-2-yl)sulfonyl]-3-(1,2,3,6-tetrahydropyridin-4-yl)-1,3-dihydro-2H-benzimidazol-2-one] |
| 2 nM | O=c1n(C2=CCNCC2)c2ccccc2n1S(=O)(=O)c1c(Cl)nc2sccn12 [Example 49, 1-[(6-chloroimidazo[2,1-b][1,3]thiazol-5-yl)sulfonyl]-3-(1,2,3,6-tetrahydropyridin-4-yl)-1,3-dihydro-2H-benzimidazol-2-one] |
| 19 nM | O=c1n(C2=CCNCC2)c2ccccc2n1S(=O)(=O)c1c(Cl)nc2ccccn12 [Example 51, 1-[(2-chloroimidazo[1,2-a]pyridin-3-yl)sulfonyl]-3-(1,2,3,6-tetrahydropyridin-4-yl)-1,3-dihydro-2H-benzimidazol-2-one] |
